Source: ChEMBL document CHEMBL1201862, “PubChem BioAssay data set” (2004)
Calls of active or inactive are those of the source.

Legend:
[1] = A cytotoxicity screen of small molecule inhibitors of the PhoP region in Salmonella typhi identified in the primary screen. [Related pubchem assays: 1850, 1864, 1985 ]; assay type: functional
[2] = biological target: Cytochrome P450 3A4 (Homo sapiens, UniProt P08684); conditions: Potency;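 note: confirmatory qHTS run detecting inhibitors and substrates of CYP3A4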
Sequence of Cytochrome P450 3A4 (P08684 whole entry): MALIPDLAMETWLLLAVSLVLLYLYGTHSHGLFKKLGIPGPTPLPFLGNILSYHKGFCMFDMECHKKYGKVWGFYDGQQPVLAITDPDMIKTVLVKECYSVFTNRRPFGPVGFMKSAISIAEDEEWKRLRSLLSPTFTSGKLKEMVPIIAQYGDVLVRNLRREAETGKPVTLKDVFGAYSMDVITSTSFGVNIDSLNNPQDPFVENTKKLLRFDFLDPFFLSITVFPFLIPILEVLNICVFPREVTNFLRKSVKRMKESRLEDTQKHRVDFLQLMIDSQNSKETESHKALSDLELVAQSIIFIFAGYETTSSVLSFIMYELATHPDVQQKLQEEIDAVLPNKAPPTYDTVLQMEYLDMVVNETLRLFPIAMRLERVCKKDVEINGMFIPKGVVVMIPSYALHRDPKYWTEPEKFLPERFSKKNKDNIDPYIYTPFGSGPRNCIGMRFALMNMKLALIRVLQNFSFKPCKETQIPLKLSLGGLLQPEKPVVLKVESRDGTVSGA

[3] = Luminescence Cell-Based Dose Retest to Confirm Inhibitors of Cancer Stem Cells. [Related pubchem assays (depositor defined):AID2717, AID2721]; assay type: functional; conditions: Homo sapiens
[4] = viability loss of HPDE-C7K cells – cell-based, fluorescence, HTS, primary screen (AID 431); assay type: functional; conditions: Homo sapiens
[5] = HPDE-C7 pancreatic duct cell viability loss – fluorescence, HTS (AID 430); assay type: functional, cell-based; conditions: Homo sapiens
[6] = biological target: Procathepsin L (Homo sapiens, UniProt P07711); test: CTSL1 protease inhibition – biochemical, QFRET, 1536-well, counter-screen for M1/M17 aminopeptidase inhibitor project, dose response (AID 2214)
Sequence of Procathepsin L (P07711 whole entry): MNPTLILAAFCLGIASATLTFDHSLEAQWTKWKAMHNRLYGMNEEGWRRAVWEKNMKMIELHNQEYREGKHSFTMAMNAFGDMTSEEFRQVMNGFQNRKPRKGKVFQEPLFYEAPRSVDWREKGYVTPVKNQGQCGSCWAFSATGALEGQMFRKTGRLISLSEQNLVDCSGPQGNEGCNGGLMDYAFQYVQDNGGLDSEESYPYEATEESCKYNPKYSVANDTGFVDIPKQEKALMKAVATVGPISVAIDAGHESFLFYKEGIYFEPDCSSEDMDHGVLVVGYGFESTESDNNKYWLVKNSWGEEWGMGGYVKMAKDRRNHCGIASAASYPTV

[7] = biological target: T1, Aspartyl aminopeptidase (Plasmodium falciparum 3D7, UniProt Q8I2J3); test: Counterscreen for inhibitors of M1 and M17 aminopeptidases: QFRET-based biochemical high throughput dose response assay for inhibitors of the Plasmodium falciparum M18 Aspartyl Aminopeptidase (PFM18AAP). [Related PubChem assays: 1619 (Screening assay (M17LAP inhibitors).), 1445 (Screening assay (M1AAP inhibitors).)]
T1 sequence (Q8I2J3 whole entry): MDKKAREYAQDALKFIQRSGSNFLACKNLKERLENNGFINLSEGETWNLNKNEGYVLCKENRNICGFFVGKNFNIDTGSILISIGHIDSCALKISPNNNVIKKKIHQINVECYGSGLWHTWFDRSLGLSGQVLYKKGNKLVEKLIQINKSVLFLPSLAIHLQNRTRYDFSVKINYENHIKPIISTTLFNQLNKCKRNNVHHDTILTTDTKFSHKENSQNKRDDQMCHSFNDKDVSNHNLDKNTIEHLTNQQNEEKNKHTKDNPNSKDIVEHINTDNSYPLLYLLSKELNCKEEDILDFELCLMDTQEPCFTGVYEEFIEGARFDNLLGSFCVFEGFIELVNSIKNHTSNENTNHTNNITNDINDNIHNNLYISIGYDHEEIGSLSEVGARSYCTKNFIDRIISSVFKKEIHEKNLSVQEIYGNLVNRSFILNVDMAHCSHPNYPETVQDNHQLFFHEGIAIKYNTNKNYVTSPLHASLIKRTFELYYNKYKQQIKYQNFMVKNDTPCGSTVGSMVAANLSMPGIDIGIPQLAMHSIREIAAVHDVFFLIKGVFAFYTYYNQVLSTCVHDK

[8] = biological target: T2, Leucine aminopeptidase (Plasmodium falciparum 3D7, UniProt Q8IL11); test: P. falciparum M17LAP inhibitors, primary screen, biochemical, fluorogenic H-Leu-NHMec substrate, 1536-well (AID 1619); assay type: functional
T2 sequence (Q8IL11 whole entry): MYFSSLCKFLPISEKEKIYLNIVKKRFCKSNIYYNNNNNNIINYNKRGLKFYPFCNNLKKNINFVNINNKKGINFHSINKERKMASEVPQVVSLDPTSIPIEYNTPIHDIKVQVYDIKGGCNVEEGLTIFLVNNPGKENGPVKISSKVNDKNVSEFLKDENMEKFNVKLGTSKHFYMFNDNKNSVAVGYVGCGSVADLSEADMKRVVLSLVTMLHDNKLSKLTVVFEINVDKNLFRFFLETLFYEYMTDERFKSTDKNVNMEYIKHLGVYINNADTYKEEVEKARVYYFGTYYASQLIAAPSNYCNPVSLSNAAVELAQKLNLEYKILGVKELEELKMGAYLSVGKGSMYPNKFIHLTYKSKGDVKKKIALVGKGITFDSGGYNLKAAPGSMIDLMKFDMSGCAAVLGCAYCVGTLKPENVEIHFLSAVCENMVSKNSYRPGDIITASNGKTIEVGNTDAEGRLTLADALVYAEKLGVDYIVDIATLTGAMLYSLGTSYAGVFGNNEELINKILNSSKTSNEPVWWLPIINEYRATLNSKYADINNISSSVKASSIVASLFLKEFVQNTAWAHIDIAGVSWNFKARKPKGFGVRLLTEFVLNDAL

[9] = biological target: Glyceraldehyde-3-phosphate dehydrogenase (Homo sapiens, UniProt P04406)
Sequence of Glyceraldehyde-3-phosphate dehydrogenase (P04406 whole entry): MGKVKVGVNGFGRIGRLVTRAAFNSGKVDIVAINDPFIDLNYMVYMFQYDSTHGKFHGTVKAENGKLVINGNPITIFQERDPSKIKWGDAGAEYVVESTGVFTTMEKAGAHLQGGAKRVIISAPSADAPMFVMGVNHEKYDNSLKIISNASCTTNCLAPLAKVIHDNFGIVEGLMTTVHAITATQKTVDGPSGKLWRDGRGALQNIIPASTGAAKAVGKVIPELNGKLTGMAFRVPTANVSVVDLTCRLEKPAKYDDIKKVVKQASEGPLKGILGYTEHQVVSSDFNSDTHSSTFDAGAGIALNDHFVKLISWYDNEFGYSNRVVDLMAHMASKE

[10] = biological target: Alkaline phosphatase, placental type (Homo sapiens, UniProt P05187); test: human placental alkaline phosphatase inhibition – biochemical, luminescence, confirmation (AID 1512); assay type: functional
Sequence of Alkaline phosphatase, placental type (P05187 whole entry): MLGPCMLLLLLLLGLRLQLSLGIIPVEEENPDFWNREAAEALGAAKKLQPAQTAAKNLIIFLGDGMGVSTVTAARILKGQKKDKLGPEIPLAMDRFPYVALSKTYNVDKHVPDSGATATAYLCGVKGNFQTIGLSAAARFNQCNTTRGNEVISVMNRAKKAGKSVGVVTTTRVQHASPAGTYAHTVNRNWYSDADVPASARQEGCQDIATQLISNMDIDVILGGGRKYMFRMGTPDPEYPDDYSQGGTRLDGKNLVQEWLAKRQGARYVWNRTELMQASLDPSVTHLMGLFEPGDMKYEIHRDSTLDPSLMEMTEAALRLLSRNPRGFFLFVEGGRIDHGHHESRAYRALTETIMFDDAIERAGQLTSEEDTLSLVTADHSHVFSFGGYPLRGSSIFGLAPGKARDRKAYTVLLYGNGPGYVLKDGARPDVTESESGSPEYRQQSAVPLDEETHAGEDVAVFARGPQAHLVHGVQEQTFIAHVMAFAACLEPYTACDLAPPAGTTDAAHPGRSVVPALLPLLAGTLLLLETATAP

[11] = biological target: T3, Alkaline phosphatase, tissue-nonspecific isozyme (Homo sapiens, UniProt P05186); test: potency against alkaline phosphatase TNAP – biochemical, luminescent, dose response, SAR follow-up (AID 1056)
T3 sequence (P05186 whole entry): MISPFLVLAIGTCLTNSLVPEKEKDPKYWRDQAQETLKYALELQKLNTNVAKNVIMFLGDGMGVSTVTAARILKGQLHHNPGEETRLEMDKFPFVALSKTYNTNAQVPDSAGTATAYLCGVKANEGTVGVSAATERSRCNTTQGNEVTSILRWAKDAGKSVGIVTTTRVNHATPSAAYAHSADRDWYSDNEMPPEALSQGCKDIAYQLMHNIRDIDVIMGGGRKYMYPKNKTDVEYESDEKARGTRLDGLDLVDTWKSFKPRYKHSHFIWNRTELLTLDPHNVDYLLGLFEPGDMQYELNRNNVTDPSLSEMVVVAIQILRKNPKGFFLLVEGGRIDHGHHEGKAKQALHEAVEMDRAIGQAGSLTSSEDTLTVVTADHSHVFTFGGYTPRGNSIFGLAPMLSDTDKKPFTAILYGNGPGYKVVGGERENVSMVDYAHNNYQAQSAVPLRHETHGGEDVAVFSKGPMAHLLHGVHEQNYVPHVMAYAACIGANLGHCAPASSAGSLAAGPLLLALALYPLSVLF

For `CCOC(=O)Cc1csc(NC(=O)c2ccc(S(=O)(=O)N3CCCC3)cc2)n1`, the EC50 [1] was > 50 µM (active).

With `CC(=O)OCC1OC(C#Cc2ccc(Br)cc2)C=CC1OC(C)=O` (stereo unspecified) the AC50 [2] was 3.16 µM (inconclusive).

For `COc1cc(CN2CCN(c3cccc(Cl)c3)CC2)cc(OC)c1OC`, the AC50 [3] was 1.45 µM (active), the EC50 [4] was 5.95 µM (active) and the EC50 [5] was 6.14 µM (active).

With `COC(=O)c1c(NC(=O)C2CCCCC2C(=O)O)sc2c1CCCCC2` (stereo unspecified) the IC50 [6] was > 59.6 µM (not active), the IC50 [7] was > 73.5 µM (not active) and the IC50 [8] was 1.49 µM (active).

With `CCCC(=O)N1CCN(c2ccc(NC(=S)NC(=O)c3cccc(C)c3)cc2)CC1` the EC50 [1] was > 50 µM (active).

In the case of `COc1ccccc1-c1nnc(SCc2ccc(C(=O)O)cc2)[nH]1`, the IC50 [9] is reported as > 100 µM (not active), the IC50 [10] is reported as > 100 µM (inactive) and the IC50 [11] is reported as 16.3 µM (active).

For `CSc1n[nH]c(NC(C)=O)n1`, the IC50 [9] was > 10 µM (inconclusive) and the IC50 [11] was > 10 µM (inactive).

For `O=S(=O)(Nc1ccncn1)c1cc(Cl)ccc1F`, the IC50 [9] was > 100 µM (not active) and the IC50 [11] was > 100 µM (inactive).
